Measured values published in US20240082255A1 (Board of Regents, The University of Texas System, priority 2017, published 2024).
Entries after “also recorded” stand apart in the source; their conditions may differ.

Experiments:
[1] = tested on: MDA-MB-231-GFP-luc cells implanted into the mammary fat pad; assay: orthotopic xenograft study, imipramine and olaparib; assay type: in vivo, athymic nude mice; settings: weeks 4 and 5; imipramine 40 mg/kg or olaparib 50 mg/kg body weight
Procedure: To evaluate whether imipramine can sensitize the response to olaparib treatment, an orthotopic xenograft study was performed. […] Mice were treated for 4 weeks starting week 1 after tumor implantation. Tumor volumes were measured twice a week.

MDA-MB-231 cells [2] = assay: transwell invasion assay; assay type: cell-based; settings: MDA-MB-231, 20 μM for 48 hrs
MDA-MB-231 cells [3] = assay: RNA seq gene expression profiling; assay type: cell-based; settings: 96 hours
Procedure: RNA samples were further processed for gene expression profiling using Illumina HiSeq 2000 following manufacturer's standard protocol (Illumina, San Diego, CA). Differential expression analysis was performed by using DEseq, and significant genes with at least 1.5-fold change with p<0.05 were chosen for analysis. Using all significant and differentially expressed genes from the RNA-seq data, Ingenuity Pathway Analysis software (IPA) was used to interpret the biological pathways. Total protein extracted from cell lines were subjected to western blot analysis.

MDA-MB-231 cells [4] = assay: alamar Blue cell viability assay; assay type: cell-based; settings: MDA-MB-231, imipramine 5-100 μM, 96 hours
Procedure: (§1) The data shown are mean±SEM. *, P<0.05; **, P<0.01; ***, P<0.001; ****, P<0.0001 versus control group, t-test.
(§2) Cell viability was assessed using alamar Blue cell viability assay.

MDA-MB-468 cells = assay: alamar Blue cell viability assay; assay type: cell-based; settings: MDA-MB-468, imipramine 5-100 μM, 96 hours
Procedure: as §1, §2

[5] = tested on: MDA-MB-231 cells implanted into the mammary fat pad; settings: 16 escalated to 20 or 32 escalated to 40 mg/kg body weight, ip daily for thirty days
Procedure: MDA-MB-231 cells were implanted into the mammary fat pad of athymic nude mice. […] After the 30th day, the mice were euthanized, and the tumors were isolated and processed for molecular and immunohistologic studies. Tumor volume was calculated by using the formula 0.5236L1 (L2)^2, where L1 is long axis and L2 is the short axis of the tumor.

IL-10 = settings: Mukherjee et al., 2014; cited from earlier work
MDA-MB-231 cells [6] = assay: transwell migration assay; assay type: cell-based; settings: MDA-MB-231, 20 μM for 48 hrs
IL-12 = settings: Mukherjee et al., 2014; cited from earlier work

SMILES	difference in tumor growth, control vs single agent [1]	invasion of breast cancer cells compared with vehicle control (MDA-MB-231 cells [2])	expression of cell cycle and DNA repair genes FOXM1, CyclinD1, PLK1, SKP2, XRCC3 and RAD51 (MDA-MB-231 cells [3])	viability of breast cancer cells compared to vehicle-treated cells (MDA-MB-231 cells [4])	viability of breast cancer cells compared to vehicle-treated cells (MDA-MB-468 cells)	tumor growth (mean tumor volume) compared to vehicle control [5]	tumor size compared to vehicle control [5]	tumor weight compared to vehicle control [5]	effect on IL-10 (IL-10)	migration of breast cancer cells compared with vehicle control (MDA-MB-231 cells [6])	effect on levels of IL-12 (IL-12)
CN(C)CCCN1c2ccccc2CCc2ccccc21 [imipramine]	significant difference	reduction	reduced expression	significantly reduced viability	significantly reduced viability	significantly reduced	significantly reduced	reduced tumor weight in a dose dependent manner; also recorded: significantly reduced	inhibit	reduction	elevate
O=C(c1cc(Cc2n[nH]c(=O)c3ccccc23)ccc1F)N1CCN(C(=O)C2CC2)CC1 [olaparib]	significant difference										
